Experimental data taken from the kinase profiling compilation of Christmann-Franck et al. (2016).

Legend:
Assay in all cases: KINOMEscan competition binding
Conditions in all cases: compound 1.0 µM
AKT2 (human) = AKT2 (human) (UniProt P31751)
BRSK2 (human) = BRSK2 (human) (UniProt Q8IWQ3)
CDC42BPA (human) = CDC42BPA (human) (UniProt Q5VT25)
CDK16 (human) = CDK16 (human) (UniProt Q00536)
CSNK1A1L (human) = CSNK1A1L (human) (UniProt Q8N752)
CSNK1G3 (human) = CSNK1G3 (human) (UniProt Q9Y6M4)
CaMK1 (human) = CaMK1 (human) (UniProt Q14012)
DYRK1A (human) = DYRK1A (human) (UniProt Q13627)
[1] = system: EGFR (human), P00533 [752-759 del]
EPHA3 (human) = EPHA3 (human) (UniProt P29320)
Chain of EPHA3 (human) (P29320 whole entry, looked up): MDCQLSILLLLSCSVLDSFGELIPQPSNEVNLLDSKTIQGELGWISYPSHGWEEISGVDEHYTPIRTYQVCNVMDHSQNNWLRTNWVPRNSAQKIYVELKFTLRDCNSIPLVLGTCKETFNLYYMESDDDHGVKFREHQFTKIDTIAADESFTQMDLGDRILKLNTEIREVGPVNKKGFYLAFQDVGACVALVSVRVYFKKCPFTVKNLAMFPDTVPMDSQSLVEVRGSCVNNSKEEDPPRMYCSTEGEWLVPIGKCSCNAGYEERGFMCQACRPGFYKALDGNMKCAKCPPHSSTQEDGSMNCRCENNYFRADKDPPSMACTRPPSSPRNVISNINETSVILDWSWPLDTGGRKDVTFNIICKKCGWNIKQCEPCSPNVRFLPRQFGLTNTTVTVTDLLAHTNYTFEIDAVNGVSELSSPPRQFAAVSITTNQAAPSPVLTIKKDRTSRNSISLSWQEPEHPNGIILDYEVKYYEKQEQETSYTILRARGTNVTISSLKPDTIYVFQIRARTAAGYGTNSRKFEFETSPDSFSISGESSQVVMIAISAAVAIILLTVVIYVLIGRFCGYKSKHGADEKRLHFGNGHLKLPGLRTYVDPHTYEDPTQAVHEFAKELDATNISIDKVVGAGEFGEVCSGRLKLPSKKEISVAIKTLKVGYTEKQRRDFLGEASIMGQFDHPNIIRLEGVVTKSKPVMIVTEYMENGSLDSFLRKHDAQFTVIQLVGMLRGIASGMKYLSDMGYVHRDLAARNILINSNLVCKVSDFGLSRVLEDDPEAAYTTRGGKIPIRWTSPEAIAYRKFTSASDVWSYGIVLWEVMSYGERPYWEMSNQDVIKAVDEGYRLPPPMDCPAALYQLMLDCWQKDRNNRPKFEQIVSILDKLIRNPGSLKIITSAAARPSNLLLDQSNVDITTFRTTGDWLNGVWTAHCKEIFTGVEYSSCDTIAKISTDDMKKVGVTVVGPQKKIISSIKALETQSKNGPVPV

ERBB4 (human) = ERBB4 (human) (UniProt Q15303)
FES (human) = FES (human) (UniProt P07332)
Chain of FES (human) (P07332 whole entry, looked up): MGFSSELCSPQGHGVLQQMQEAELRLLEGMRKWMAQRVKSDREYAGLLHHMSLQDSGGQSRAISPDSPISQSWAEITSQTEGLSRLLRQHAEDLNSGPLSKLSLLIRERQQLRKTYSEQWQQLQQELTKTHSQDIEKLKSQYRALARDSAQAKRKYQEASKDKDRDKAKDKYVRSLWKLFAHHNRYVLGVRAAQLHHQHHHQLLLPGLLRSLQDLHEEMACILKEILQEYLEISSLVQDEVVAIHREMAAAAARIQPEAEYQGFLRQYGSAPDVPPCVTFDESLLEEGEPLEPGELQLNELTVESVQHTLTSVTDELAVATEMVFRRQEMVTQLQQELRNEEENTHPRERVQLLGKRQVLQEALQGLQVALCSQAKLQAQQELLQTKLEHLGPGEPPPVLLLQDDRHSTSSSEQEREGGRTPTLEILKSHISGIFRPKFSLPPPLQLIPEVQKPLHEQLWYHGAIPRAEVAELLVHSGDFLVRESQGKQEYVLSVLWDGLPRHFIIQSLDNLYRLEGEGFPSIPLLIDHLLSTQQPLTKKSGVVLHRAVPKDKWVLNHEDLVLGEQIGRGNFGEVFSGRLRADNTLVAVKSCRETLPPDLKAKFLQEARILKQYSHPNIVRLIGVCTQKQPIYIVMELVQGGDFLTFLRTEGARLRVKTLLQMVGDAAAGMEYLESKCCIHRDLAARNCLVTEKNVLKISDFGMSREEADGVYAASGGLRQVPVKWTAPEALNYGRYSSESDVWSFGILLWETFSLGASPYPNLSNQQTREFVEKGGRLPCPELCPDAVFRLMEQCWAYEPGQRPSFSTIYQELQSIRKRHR

FGFR1 (human) = FGFR1 (human) (UniProt P11362)
[2] = system: FGFR3 (human), P22607 [G697C]
INSRR (human) = INSRR (human) (UniProt P14616)
IRAK3 (human) = IRAK3 (human) (UniProt Q9Y616)
MAP2K6 (human) = MAP2K6 (human) (UniProt P52564)
Chain of MAP2K6 (human) (P52564 whole entry, looked up): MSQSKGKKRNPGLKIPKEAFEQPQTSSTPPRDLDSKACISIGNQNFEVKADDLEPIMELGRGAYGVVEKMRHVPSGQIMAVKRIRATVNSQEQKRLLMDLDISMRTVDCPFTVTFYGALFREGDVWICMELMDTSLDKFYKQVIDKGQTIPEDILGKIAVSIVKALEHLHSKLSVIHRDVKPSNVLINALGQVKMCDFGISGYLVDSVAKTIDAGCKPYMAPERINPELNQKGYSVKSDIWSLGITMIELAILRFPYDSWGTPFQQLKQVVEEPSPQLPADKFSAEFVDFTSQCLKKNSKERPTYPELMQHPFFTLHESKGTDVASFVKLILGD

MAP3K15 (human) = MAP3K15 (human) (UniProt Q6ZN16)
MAPK7 (human) = MAPK7 (human) (UniProt Q13164)
MAPKAPK5 (human) = MAPKAPK5 (human) (UniProt Q8IW41)
NEK6 (human) = NEK6 (human) (UniProt Q9HC98)
NEK7 (human) = NEK7 (human) (UniProt Q8TDX7)
NTRK2 (human) = NTRK2 (human) (UniProt Q16620)
NUAK2 (human) = NUAK2 (human) (UniProt Q9H093)
PDPK1 (human) = PDPK1 (human) (UniProt O15530)
PKMYT1 (human) = PKMYT1 (human) (UniProt Q99640)
PKN2 (human) = PKN2 (human) (UniProt Q16513)
PRKACB (human) = PRKACB (human) (UniProt P22694)
PRKCE (human) = PRKCE (human) (UniProt Q02156)
PRKD1 (human) = PRKD1 (human) (UniProt Q15139)
Chain of PRKD1 (human) (Q15139 whole entry, looked up): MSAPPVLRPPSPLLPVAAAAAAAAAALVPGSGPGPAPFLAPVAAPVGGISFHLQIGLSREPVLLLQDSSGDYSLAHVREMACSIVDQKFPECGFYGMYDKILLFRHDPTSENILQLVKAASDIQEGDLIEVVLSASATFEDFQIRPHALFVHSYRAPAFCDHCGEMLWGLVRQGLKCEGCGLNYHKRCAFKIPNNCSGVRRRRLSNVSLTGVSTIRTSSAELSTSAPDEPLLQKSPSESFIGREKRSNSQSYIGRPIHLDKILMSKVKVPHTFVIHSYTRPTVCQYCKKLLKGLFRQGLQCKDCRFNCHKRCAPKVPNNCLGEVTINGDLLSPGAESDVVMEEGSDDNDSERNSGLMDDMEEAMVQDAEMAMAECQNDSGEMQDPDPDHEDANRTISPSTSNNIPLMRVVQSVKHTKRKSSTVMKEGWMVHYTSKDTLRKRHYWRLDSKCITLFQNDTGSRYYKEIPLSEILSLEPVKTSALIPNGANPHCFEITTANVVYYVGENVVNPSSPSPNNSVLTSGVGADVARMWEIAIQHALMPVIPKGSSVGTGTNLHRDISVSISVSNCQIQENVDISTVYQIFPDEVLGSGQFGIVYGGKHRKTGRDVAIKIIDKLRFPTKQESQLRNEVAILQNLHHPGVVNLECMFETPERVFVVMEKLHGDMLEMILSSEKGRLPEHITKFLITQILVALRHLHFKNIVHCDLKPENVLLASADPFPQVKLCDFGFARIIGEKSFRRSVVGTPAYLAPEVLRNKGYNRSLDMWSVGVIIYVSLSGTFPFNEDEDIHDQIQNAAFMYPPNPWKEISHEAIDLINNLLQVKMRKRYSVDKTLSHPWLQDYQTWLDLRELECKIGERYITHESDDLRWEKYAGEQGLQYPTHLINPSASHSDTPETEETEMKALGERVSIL

PRKD3 (human) = PRKD3 (human) (UniProt O94806)
RAF1 (human) = RAF1 (human) (UniProt P04049)
ROCK1 (human) = ROCK1 (human) (UniProt Q13464)
Chain of ROCK1 (human) (Q13464 whole entry, looked up): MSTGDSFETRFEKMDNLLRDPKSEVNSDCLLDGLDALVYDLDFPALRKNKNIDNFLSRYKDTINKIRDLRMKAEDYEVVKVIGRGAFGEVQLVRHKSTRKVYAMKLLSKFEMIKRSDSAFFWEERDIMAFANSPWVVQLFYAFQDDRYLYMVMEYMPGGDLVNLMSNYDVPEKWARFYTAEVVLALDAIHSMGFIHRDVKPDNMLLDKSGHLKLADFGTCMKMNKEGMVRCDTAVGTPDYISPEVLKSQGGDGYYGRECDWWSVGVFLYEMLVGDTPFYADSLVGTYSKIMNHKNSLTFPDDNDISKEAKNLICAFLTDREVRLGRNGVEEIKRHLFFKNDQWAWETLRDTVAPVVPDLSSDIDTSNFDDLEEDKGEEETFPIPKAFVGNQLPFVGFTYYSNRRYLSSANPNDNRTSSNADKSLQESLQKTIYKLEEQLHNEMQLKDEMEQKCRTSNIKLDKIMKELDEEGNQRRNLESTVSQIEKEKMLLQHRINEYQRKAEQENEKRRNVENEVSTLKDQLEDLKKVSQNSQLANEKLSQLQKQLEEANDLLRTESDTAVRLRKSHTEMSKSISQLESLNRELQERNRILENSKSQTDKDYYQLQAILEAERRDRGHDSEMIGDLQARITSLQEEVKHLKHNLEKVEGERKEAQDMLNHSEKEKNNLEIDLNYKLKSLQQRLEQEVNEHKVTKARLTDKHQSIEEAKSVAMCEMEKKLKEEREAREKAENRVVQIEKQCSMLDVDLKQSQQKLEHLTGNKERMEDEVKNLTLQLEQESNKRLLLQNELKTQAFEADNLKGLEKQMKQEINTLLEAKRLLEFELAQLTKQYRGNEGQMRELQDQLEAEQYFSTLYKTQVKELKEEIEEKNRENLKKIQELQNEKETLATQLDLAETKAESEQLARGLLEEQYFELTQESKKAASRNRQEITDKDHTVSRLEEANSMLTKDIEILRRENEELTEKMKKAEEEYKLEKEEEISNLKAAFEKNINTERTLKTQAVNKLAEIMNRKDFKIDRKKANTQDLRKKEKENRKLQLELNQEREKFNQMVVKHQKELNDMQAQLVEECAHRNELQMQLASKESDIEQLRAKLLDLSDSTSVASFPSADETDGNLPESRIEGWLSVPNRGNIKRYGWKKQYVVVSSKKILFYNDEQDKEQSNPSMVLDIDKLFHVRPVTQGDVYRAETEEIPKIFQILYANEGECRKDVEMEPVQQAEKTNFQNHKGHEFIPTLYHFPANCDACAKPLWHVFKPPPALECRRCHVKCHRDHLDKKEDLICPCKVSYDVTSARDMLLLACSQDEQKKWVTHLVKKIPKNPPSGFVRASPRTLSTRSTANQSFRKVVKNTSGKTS

ROCK2 (human) = ROCK2 (human) (UniProt O75116)
RPS6KA6 KD2 (human) = RPS6KA6 KD2 (human) (UniProt Q9UK32)
SRPK2 (human) = SRPK2 (human) (UniProt P78362)
STK10 (human) = STK10 (human) (UniProt O94804)
STK32C (human) = STK32C (human) (UniProt Q86UX6)
TESK1 (human) = TESK1 (human) (UniProt Q15569)
TNIK (human) = TNIK (human) (UniProt Q9UKE5)

Chain of CSNK1G3 (human) (Q9Y6M4 whole entry, looked up): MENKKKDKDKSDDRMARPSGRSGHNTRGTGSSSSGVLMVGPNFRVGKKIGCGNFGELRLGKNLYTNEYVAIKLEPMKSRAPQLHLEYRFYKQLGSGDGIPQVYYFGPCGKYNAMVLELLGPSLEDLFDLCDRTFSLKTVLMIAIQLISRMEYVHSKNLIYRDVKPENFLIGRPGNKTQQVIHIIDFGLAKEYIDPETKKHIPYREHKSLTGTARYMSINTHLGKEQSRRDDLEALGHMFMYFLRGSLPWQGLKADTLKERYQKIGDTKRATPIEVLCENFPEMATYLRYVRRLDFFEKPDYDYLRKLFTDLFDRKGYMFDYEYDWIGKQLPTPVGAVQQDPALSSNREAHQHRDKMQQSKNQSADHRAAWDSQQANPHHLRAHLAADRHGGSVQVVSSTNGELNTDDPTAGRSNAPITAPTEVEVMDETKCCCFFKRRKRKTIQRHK

Nc1cc(C(F)(F)F)c(-c2cc(N3CCOCC3)nc(N3CCOCC3)n2)cn1
inhibition of binding (AKT2 (human)): 0% | inhibition of binding (BRSK2 (human)): 0% | inhibition of binding (CDC42BPA (human)): 0% | inhibition of binding (CDK16 (human)): 0% | inhibition of binding (CSNK1A1L (human)): 0% | inhibition of binding (CSNK1G3 (human)): 20% | inhibition of binding (CaMK1 (human)): 4% | inhibition of binding (DYRK1A (human)): 11% | inhibition of binding [1]: 0% | inhibition of binding (EPHA3 (human)): 0% | inhibition of binding (ERBB4 (human)): 7% | inhibition of binding (FES (human)): 0% | inhibition of binding (FGFR1 (human)): 0% | inhibition of binding [2]: 0% | inhibition of binding (INSRR (human)): 0% | inhibition of binding (IRAK3 (human)): 0% | inhibition of binding (MAP2K6 (human)): 0% | inhibition of binding (MAP3K15 (human)): 0% | inhibition of binding (MAPK7 (human)): 0% | inhibition of binding (MAPKAPK5 (human)): 0% | inhibition of binding (NEK6 (human)): 0% | inhibition of binding (NEK7 (human)): 0% | inhibition of binding (NTRK2 (human)): 0% | inhibition of binding (NUAK2 (human)): 0% | inhibition of binding (PDPK1 (human)): 0% | inhibition of binding (PKMYT1 (human)): 0% | inhibition of binding (PKN2 (human)): 0% | inhibition of binding (PRKACB (human)): 4% | inhibition of binding (PRKCE (human)): 0% | inhibition of binding (PRKD1 (human)): 36% | inhibition of binding (PRKD3 (human)): 11% | inhibition of binding (RAF1 (human)): 7% | inhibition of binding (ROCK1 (human)): 0% | inhibition of binding (ROCK2 (human)): 0% | inhibition of binding (RPS6KA6 KD2 (human)): 18% | inhibition of binding (SRPK2 (human)): 27% | inhibition of binding (STK10 (human)): 4% | inhibition of binding (STK32C (human)): 0% | inhibition of binding (TESK1 (human)): 0% | inhibition of binding (TNIK (human)): 1%
